Read-outs that look alike come from different tables or passages of the source.
How the values were obtained:
[1] = system: AML cell lines; experiment: Intracellular drug and phosphorylated metabolites by HPLC with liquid scintillation counting; conditions: 2 h, 1 µM; for share of the total intracellular accumulation: all cell lines evaluated
[2] = system: MV4-11; assay type: cell-based; conditions: Homo sapiens, 72 h, Cell Titer Glo
[3] = In vivo tolerability / maximum tolerated dose; design: species or system mice; conditions: multiple doses, intermittent every 3 or 4-day schedule
Method: Next, we sought to compare the in vivo efficacy of gemcitabine and cabazitaxel to the standard of care, cytarabine. Due to limitations with tolerability, we have previously treated our AML xenograft models with low-dose cytarabine[13],[31]. […] Tolerability studies of gemcitabine at the same dose and schedule was not tolerated. […] Similarly, we performed tolerability of cabazitaxel using multiple doses on an intermittent every 3 or 4-day schedule; the only tolerable dose was 5 mg/kg.
All animal studies were performed in accordance with Animal Care and Use Programs under protocols approved by the Institutional Animal Care and Use Committee at OSU. We have complied with the relevant ethical considerations for animal research overseen by this committee. Mice were housed in a barrier facility. Non-tumor bearing Ly5.2 C57Bl/6 (BoyJ) mice were treated with 100, 120, or 140 mg kg^−1 gemcitabine on an intermittent schedule every 3 days for 3 weeks; 3 or 6 mg kg^−1 doses were used to evaluate daily for 5 days schedule. All doses were administered by intraperitoneal injection; tolerability was assessed by daily weights and observation of changes in body condition.
Supplementary Figure 12. Establish maximum tolerated dose of gemcitabine. Non-tumor bearing female BoyJ mice were treated on an intermittent schedule every 3 days for 3 weeks with 100, 120, or 140 m gkg-1 gemcitabine (Gem ) or treated on a daily schedule once a day for 5 days with 3 or 6 m gkg-1 Gem. Daily weight of treated mice; data reported as a percent weight loss from day 0. Arrow indicate treatment days.

[4] = system: U937; assay type: cell-based; conditions: Homo sapiens, U-937; 72 h, Cell Titer Glo
[5] = system: ML2; experiment: Secondary dose-response HTS, Cell Titer Glo; assay type: cell-based, human; conditions: Homo sapiens, ML-2
[6] = system: CMS; assay type: cell-based; conditions: Homo sapiens, 72 h, read-out: IC50 CMS
[7] = system: CHRF288-11; assay type: cell-based; conditions: Homo sapiens; 72 h, Cell Titer Glo; read-out: IC50 CHRF288-11
[8] = system: MOLM-13; experiment: Secondary dose-response HTS, Cell Titer Glo; assay type: cell-based, human; conditions: MOLM-13; for EC50: Homo sapiens
[9] = system: CHRF288-11; experiment: Secondary dose-response HTS, Cell Titer Glo; assay type: cell-based, human; conditions: for EC50: Homo sapiens
[10] = system: AMKL primary AML blast samples; experiment: Ex vivo drug treatment of primary AML blasts on mesenchymal stromal cells; assay type: cell-based; conditions: Homo sapiens; primary blasts on MSC, 96 h
[11] = system: U937; experiment: Secondary dose-response HTS, Cell Titer Glo; assay type: cell-based, human; conditions: Homo sapiens, U-937
[12] = system: ML-2; assay type: cell-based; conditions: Homo sapiens, 72 h, Cell Titer Glo
[13] = system: M07e; experiment: Secondary dose-response HTS, Cell Titer Glo; assay type: cell-based, human; conditions: Homo sapiens, M-07e
[14] = system: MV4-11; experiment: Secondary dose-response HTS, Cell Titer Glo; assay type: cell-based, human; conditions: MV4-11; for EC50: Homo sapiens
[15] = system: ML-2-luciferase/YFP+ xenograft; experiment: In vivo efficacy, survival; design: species or system NSG mice; conditions: ML-2 xenograft, i.p.
[16] = system: Mll-PTD/wt:Flt3ITD/ITD primary transplants; experiment: In vivo efficacy, survival; design: species or system mice
[17] = system: CMK; experiment: Secondary dose-response HTS, Cell Titer Glo; assay type: cell-based, human; conditions: Homo sapiens, CMK
[18] = system: MOLM-13; assay type: cell-based; conditions: Homo sapiens, 72 h, Cell Titer Glo
[19] = system: AMKL patient-derived xenograft; experiment: In vivo efficacy, survival; design: species or system NSG-SGM3 mice; conditions: AMKL PDX, i.p.
[20] = system: CMS; experiment: Secondary dose-response HTS, Cell Titer Glo; assay type: cell-based, human; conditions: Homo sapiens, HTS
[21] = system: THP-1; assay type: cell-based; conditions: Homo sapiens, 72 h, Cell Titer Glo
[22] = system: CHRF288-11-luciferase/YFP+ xenograft; experiment: In vivo efficacy, survival; design: species or system NSG mice
[23] = system: Mll-PTD/wt:Flt3ITD/ITD secondary transplants; experiment: In vivo efficacy, survival; design: species or system mice; conditions: 100 mg kg−1 daily x 5 days, i.p.
[24] = system: M07e; experiment: cells; design: species or system AML cell lines (8); Secondary HTS, 10-point dose-response in triplicate, Cell Titer Glo viability, four-parameter fit EC50; conditions: M-07e, 72 h, read-out: M07e
[25] = system: CBFA2T3-GLIS2/JAK2V617F-induced AMKL model; experiment: In vivo efficacy, survival; design: species or system mice; conditions: CBFA2T3-GLIS2/JAK2V617F-Luc+ quaternary transplants, i.p.
[26] = design: method as in Wang et al., Biol Blood Marrow Transplant 2014 and others; conditions: ref Wang et al., Biol Blood Marrow Transplant 2014 and others, cited from earlier work
[27] = system: AML cell lines; conditions: human, 5 min
[28] = system: Mll PTD/wt:Flt3 ITD/ITD double knock-in primary transplant blasts (bone marrow, spleen); experiment: Accumulation in primary murine blasts; assay type: cell-based, mouse; conditions: blasts from bone marrow or spleen
Method: Cells were washed twice with ice-cold PBS; cell pellets were solubilized in 400 µL 1 N NaOH and agitated (300 rpm) at room temperature for 2 h. Then samples were neutralized with […] 1 M HCl; a 25 µL aliquot of lysate was used to estimate protein concentration using a Pierce BCA protein assay kit (Thermo Scientific). Total radioactivity was measured by a Tri-Carb 4810TR liquid scintillation counter (Perkin-Elmer) after mixing the sample with 4 mL of Emulsifier Safe (Perkin Elmer); the results were normalized to total protein content as measured by a Pierce BCA protein assay kit. Three independent experiments were performed in triplicate.
Bone marrow and splenocytes were isolated from mice transplanted with dKI AML and CG-V617 AMKL. Following red blood cells lysis, dKI AML leukemic blasts from vehicle treated mice were evaluated for accumulation of cytarabine and gemcitabine using the uptake assay described above.
Supplementary Figure 5. Accumulation of cytarabine and gemcitabine .
unlabeled and [3H]-cytarabine (Ara- C) or gemcitabine ( Gem ). Intracellular Ara- C, Gem ,
scintillation counting and normalized to protein levels. Representative chromatogram for
as disintegrations per minute (DPM) over complete run time. (c) Percentage of total
independent experiments (N=9). (d) Accumulation was determined in cell lysate of bone
double knock-in primary transplant recipient. […]

[29] = secondary high-throughput screen, read-out: average effective concentration, ML-2
[30] = secondary high-throughput screen, read-out: average effective concentration, MV4-11
[31] = secondary high-throughput screen, U937, read-out: average effective concentration, U937
[32] = secondary high-throughput screen, read-out: average effective concentration, CMK
[33] = secondary high-throughput screen, CMS, read-out: average effective concentration, CMS
[34] = secondary high-throughput screen

With `Nc1ccn([C@@H]2O[C@H](COP(=O)(O)OP(=O)(O)OP(=O)(O)O)[C@@H](O)[C@@H]2O)c(=O)n1` [Ara-CTP, cytarabine triphosphate] the “share of the total intracellular accumulation” value [1] was 52–65%.
In the case of `CO[C@H]1C(=O)[C@]2(C)[C@@H](OC)C[C@H]3OC[C@@]3(OC(C)=O)[C@H]2[C@H](OC(=O)c2ccccc2)[C@]2(O)C[C@H](OC(=O)[C@H](O)[C@@H](NC(=O)OC(C)(C)C)c3ccccc3)C(C)=C1C2(C)C` [Cabazitaxel, cabazitaxel], the IC50 [2] is reported as 1.5 nM, the only tolerable dose [3] is reported as 5 mg/kg and the IC50 [4] is reported as 0.8 nM. The EC50 ([5]; secondary HTS, 72 h, average of triplicate, read-out: EC50 ML2) was 1 nM, the EC50 [5, 29] was 0.5 nM and the IC50 [6] was 6.3 nM. It also gave an IC50 [7] of 2.9 nM, an EC50 ([8]; secondary HTS, 72 h, average of triplicate, read-out: EC50 MOLM-13) of 1 nM and an EC50 ([9]; secondary HTS, 72 h, average of triplicate, read-out: EC50 CHRF288-11) of 1 nM. The IC50 [10] was over 50000 nM, the EC50 ([11]; secondary HTS, 72 h, average of triplicate, read-out: EC50 U937) was 1 nM and the IC50 [12] was 1.6 nM. It also gave an EC50 ([13]; secondary HTS, 72 h, average of triplicate, read-out: EC50 M07e) of 1 nM, an EC50 ([14]; secondary HTS, 72 h, average of triplicate, read-out: EC50 MV4-11) of 0.3 nM and an EC50 [14, 30] of 0.34 nM. The Median survival ([15]; 5 mg kg−1 q4d) was 82 days, the Median survival ([16]; mouse, in vivo, ip) was 60 days and the EC50 ([17]; 72 h, read-out: EC50 CMK) was 1 nM. For the same molecule, the IC50 [18] was 1.2 nM, the Median survival ([19]; 5 mg kg−1 q4d) was 62 days and the EC50 ([20]; 72 h, read-out: EC50 CMS) was 1 nM. For the same molecule, the IC50 [21] was 4.4 nM, the Median survival ([22]; CHRF288-11 xenograft, 5 mg kg−1 q4d, i.p.) was 44 days and the Median survival ([22]; CHRF288-11 xenograft, 5 mg kg−1 q4d, x 2 cycles, i.p.) was 40 days.
Work on `Nc1ccn([C@@H]2O[C@H](CO)[C@@H](O)[C@@H]2O)c(=O)n1` [Cytarabine, cytarabine] yielded a Median survival [23] of 49 days, an EC50 [24] of over 10000 nM and an IC50 [2] of 1980 nM. It also gave an IC50 [4] of 11 nM, an EC50 [5, 29] of 100 nM and an IC50 ([6]; Cell Titer Glo) of 5370 nM. The IC50 [7] was 606 nM, the EC50 ([8]; secondary high-throughput screen, read-out: average effective concentration, MOLM-13) was 300 nM and the Median survival ([25]; 50 mg kg−1 daily x 5 days) was 63 days. It also gave a Median survival ([25]; 100 mg kg−1 daily x 5 days) of 80 days, an EC50 ([9]; HTS, secondary high-throughput screen, CHRF288-11, read-out: average effective concentration, CHRF288-11) of 1900 nM and an IC50 [10] of 54 nM. It also gave an EC50 [11, 31] of 290 nM, an IC50 [12] of 26 nM and an EC50 [14, 30] of 2600 nM. For the same molecule, the Median survival ([15]; 50 mg kg−1 q4d) was 29 days, the Median survival ([16]; Mll-PTD/wt:Flt3ITD/ITD primary transplants, 50 mg kg−1 q4d, i.p.) was 50 days and the “triphosphate elimination α half-life” value ([26]; biphasic) was 7 to 20 min. For the same molecule, the “triphosphate elimination β half-life” value ([26]; biphasic) was 2 to 3 h, the EC50 [17, 32] was 320 nM and the “higher concentration of cytarabine giving nearly equivalent intracellular exposure to 1 µM gemcitabine” value ([27]; 10 µM) was about 10 fold. The “uptake at 10 µM cytarabine compared to 1 µM cytarabine” value ([27]; 10 µM) was 1.6–3.7 fold, the “uptake at 100 µM cytarabine compared to 1 µM cytarabine” value ([27]; 100 µM) was 7–12 fold and the IC50 [18] was 31 nM. For the same molecule, the Median survival ([19]; 50 mg kg−1 q4d) was 56 days, the EC50 [20, 33] was 290 nM and the IC50 [21] was 8810 nM. For the same molecule, the Median survival ([22]; CHRF288-11-Luc+ model, low-dose 6.25 mg/kg once daily for 5 days for 3 weeks) was 26 days and the Median survival ([22]; CHRF288-11 xenograft, 50 mg kg−1 q4d, i.p.) was 25 days.
Work on `Nc1nc(F)nc2c1ncn2[C@@H]1O[C@H](CO)[C@@H](O)[C@@H]1O` [Fludarabine, fludarabine, reference compound] yielded an IC50 [2] of over 15000 nM, an IC50 [4] of 31 nM and an EC50 [5, 29] of over 10000 nM. The IC50 ([6]; Cell Titer Glo) was 65 nM, the IC50 [7] was over 35000 nM and the “average effective concentration, MOLM-13” value [8, 34] was “Inactive”. For the same molecule, the “average effective concentration, CHRF288-11” value ([9]; secondary high-throughput screen, CHRF288-11) was “Inactive”, the EC50 [11, 31] was over 10000 nM and the IC50 [12] was 5580 nM. The EC50 ([13]; secondary high-throughput screen, M07e, read-out: average effective concentration, M07e) was over 10000 nM, the “average effective concentration, MV4-11” value [14, 34] was “Inactive” and the EC50 [17, 32] was 8100 nM. The IC50 [18] was 1750 nM, the EC50 [20, 33] was 130 nM and the IC50 [21] was 4120 nM.
In the case of `Nc1ccn([C@@H]2O[C@H](COP(=O)(O)OP(=O)(O)OP(=O)(O)O)[C@@H](O)C2(F)F)c(=O)n1` [dFdCTP, gemcitabine triphosphate], the “accumulation of dFdCTP versus Ara-CTP” value [28] is listed as 2.4–5.3 fold, the “cellular elimination half-life (biphasic)” value ([26]; higher cellular concentrations) is listed as 15 to 24 h and the “accumulation of dFdCTP compared to Ara-CTP” value ([1]; AML cell lines) is listed as 7.3–61.2 fold. The “share of the total intracellular accumulation” value [1] was 58–81%.

— paper PMC6522510 (Nature Communications, 2019)
